Where two headings read alike, the source gives them in different places.
How the values were obtained:
L. major [1] = system: L. major; set-up: method as in ChEMBL; conditions: ref ChEMBL, cited from earlier work
L. major [2] = experiment: ChEMBL dataset of pIC50 values against L. major used for the RF model (Table S1); format: cell-based, Leishmania major; note: call rule not given here
[3] = ChemBL structures with pIC50 values used for Random forest model construction, L. major
[4] = Active/Inactive class assigned to the ChEMBL pIC50 value for Random forest model construction, ref ChEMBL
[5] = ChemBL structures with pIC50 values used for Random forest model construction (Table S1)
[6] = Active/Inactive class assigned to ChemBL structures for Random forest model construction (Table S1)

| SMILES | pIC50 Value (L. major [1]; [3]) | Outcome (L. major [2]; [4]) | pIC50 Value (L. major [1]; [5]) | Outcome (L. major [2]; [6]) |
| --- | --- | --- | --- | --- |
| COc1ccc(/C=N\NC(N)=S)cc1OCc1cn(CC(=O)c2ccc(Br)cc2)nn1 [CHEMBL4175020] | 5.24 | Active |  |  |
| Cc1ccc2cc(C3CC(c4ccc(C)s4)=NN3)c(Cl)nc2c1 (stereo not drawn) [CHEMBL2236138] |  |  | 5.58 | Active |
| COc1cc(/C=N/NC(N)=S)ccc1OCc1cn(CC(=O)c2ccc(F)cc2)nn1 [CHEMBL4170543] | 5.16 | Active |  |  |
| Cc1ccc2cc(/C=C/C(=O)c3ccc(C)s3)c(Cl)nc2c1 [CHEMBL1940853] |  |  | 5.65 | Active |
| C/C(C=O)=C\CC/C(C)=C/Cc1cc(O)ccc1O [CHEMBL257343] | 4.57 | Inactive |  |  |
| Cc1cccc2cc(C3CC(c4ccc(Cl)s4)=NN3)c(Cl)nc12 (stereo not drawn) [CHEMBL2236130] |  |  | 5.68 | Active |
| O/N=C1/c2ccccc2OC(c2ccc(Cl)cc2)C1n1ccnc1 (stereo not drawn) [CHEMBL4083146] |  |  | 6.22 | Active |
| CCNC(=N)c1ccc(N2CCN(c3nnc(-c4ccc([N+](=O)[O-])o4)s3)CC2)cc1.Cl [CHEMBL1783202] | 4.48 | Inactive |  |  |
| Cc1ccc(Nc2ncnc3ccc([N+](=O)[O-])cc23)cc1C [CHEMBL3758240] | 4.45 | Inactive |  |  |
| O=CN/N=C/c1ccccc1O [CHEMBL1172261] | 3.84 | Inactive |  |  |
| COc1ccccc1Nc1ncnc2ccc([N+](=O)[O-])cc12 [CHEMBL3758369] |  |  | 5.36 | Active |
| COc1ccccc1-c1nnc(-c2ccc(C(=O)N/N=C/c3c(O)cc(O)cc3O)cc2)o1 [CHEMBL4080097] |  |  | 5.32 | Active |
| CCC/C=C/C=C/c1nc2ccc(OC)cc2n2cccc12 [CHEMBL3260212] | 5.13 | Active |  |  |
| C#CCOc1ccc(C(=O)/C=C/c2ccc(F)cc2)c(OCC#C)c1 [CHEMBL4162285] | 5.00 | Active |  |  |
| CCCCN(CCCC)c1ccc(Nc2c3ccccc3nc3ccccc23)cc1 [CHEMBL312941] |  |  | 6.46 | Active |
| COc1ccc(-c2nc3ccccc3[nH]2)cc1 [CHEMBL379179] |  |  | 5.44 | Active |
| COc1cc(/C=N\NC(N)=S)ccc1OCc1cn(CC(=O)c2ccc(Cl)cc2)nn1 [CHEMBL4164916] | 5.27 | Active |  |  |
| COc1cc(C)cc2c1C(=O)C=C(c1c(C)c(OC)c3ccc(O)c(OC)c3c1O)C2=O [CHEMBL2071223] |  |  | 9.82 | Active |
| CCOC(=O)c1ccc(-c2nc3ccccn3c2-c2ccccc2)cc1 [CHEMBL2151879] | 4.40 | Inactive |  |  |
| COc1cc(COP(N)(=O)N(CCCl)CCCl)ccc1[N+](=O)[O-] (stereo not drawn) [CHEMBL1256966] | 4.52 | Inactive |  |  |
| COc1cc(NS(C)(=O)=O)ccc1Nc1c2ccccc2nc2ccccc12 [CHEMBL43] |  |  | 5.82 | Active |
| COc1cccc2c(-c3ccc(O)c4c3CC(C)(C)N=C4)ccc(O)c12 [CHEMBL1277993] | 4.00 | Inactive |  |  |
| CN1CCN(c2nnc(-c3ccc([N+](=O)[O-])s3)s2)CC1 [CHEMBL371217] | 3.99 | Inactive |  |  |
| O=C(CCl)N1c2ccccc2C=Cc2ccccc21 [CHEMBL3758271] | 4.32 | Inactive |  |  |
| O=[N+]([O-])c1ccc(-c2c(-c3ccccc3)nc3ccccn23)cc1 [CHEMBL2151862] |  |  | 5.31 | Active |
| Fc1ccc(-c2nc3ccccn3c2-c2ccccc2)cc1 [CHEMBL2151873] | 4.64 | Inactive |  |  |
| CC(C)c1ccc(-c2nc3cc([N+](=O)[O-])ccc3[nH]2)cc1 [CHEMBL2297904] |  |  | 5.55 | Active |

— PMC8196580, “Identification of Kaurane-Type Diterpenes as Inhibitors of Leishmania Pteridine Reductase I” (Molecules, 2021)
